Data set [1] concerns species of Staphylococcus, Streptococcus, Enterococcus, and Enterobacteriaceae. The settings on record: in vitro data; cited from earlier work.
The nature of data set [2]: Laboratory assessments (lipid profile) pre- and post-treatment in obese patients. The conditions noted are these: RFX vs. PBO, p<0.04; 550 mg twice daily for 20 days. Type of data set: in vivo, human. The source says:
(§1) Patients were followed for up to six months. The primary endpoint was weight loss at the end of the study. Laboratory assessments including a basic metabolic panel, liver enzymes, lipid profile, and HbA1c (glucose testing) were obtained pre- and post-treatment.
(§2) Baseline demographic characteristics included median age of 45 (range 18-62) years, gender (73% female) average starting weight of 238.5±77.1 lbs and BMI of 38.8±9.7. Common co-morbidities included GERD (37%), hypertension (32%), diabetes (19%), and lipid disorders (14%). […] Weight loss in the rifaximin group was statistically significant (P<0.03) when compared to baseline weight. Diabetics tended to lose more weight (−6.1 lbs), and patients with underlying lipid disorders lost the least (−0.7 lbs).

Data set [3] in a line: Pilot randomized placebo-controlled study of weight loss in obese patients (BMI>30). Type of data set: in vivo, human.
From the text: as §1, §2

On to `COC1/C=C/OC2(C)Oc3c(C)c(O)c4c(O)c(c5c(nc6cc(C)ccn65)c4c3C2=O)NC(=O)/C(C)=C\C=C\C(C)C(O)C(C)C(O)C(C)C(OC(C)=O)C1C` (stereo not shown) [RFX], for which the “antibacterial activity in vitro” value in data set [1] is given as “active”. Also, the “Triglycerides difference pre- to post-treatment” value in data set [2] was “+15.9”. For the same compound, in data set [3] (first study visit following treatment, 550 mg twice daily for 20 days, patients with BMI>30), the mean weight lost is 1.1 lbs. Moreover, the “mean weight lost at the end of the study” value in data set [3] (mean follow-up of 4.9 months, 550 mg twice daily for 20 days, P<0.03 compared to baseline weight) stood at 4.5 lbs. For the same compound, the “weight loss as compared to placebo patients” value in data set [3] (obese patients (BMI>30), pilot study) is “greater weight loss”. Moreover, in data set [3] (subgroup: diabetics, 550 mg twice daily for 20 days), the “weight change in diabetics” value is −6.1 lbs. In addition, the “weight change in patients with underlying lipid disorders” value in data set [3] (subgroup: underlying lipid disorders, 550 mg twice daily for 20 days) is given as −0.7 lbs.

The values above are taken from patent publication US20150164866A1, “METHODS OF ADMINISTERING RIFAXIMIN FOR WEIGHT LOSS AND TREATMENT OF OBESITY” (Salix Pharmaceuticals, Ltd, priority 2012, published 2015).
